Data published in patent publication US10583210B2, “Auger electron therapy for glioblastoma” (Syddansk Universitet, priority 2014, dated 2020).
Entries after “also recorded” stand apart in the source; their conditions may differ.

What was measured:
[1] = test system: orthotopic xenografted GBM (evolved from the T87 GSC); assay: Therapeutic study in orthotopic xenografted GBM-bearing nude rats (PET, survival, histology)
Description: All animal procedures were conducted in accordance with the obtained approval from the national Animal Experiments Inspectorate (permission J. Nr. 2008/561-1572). Male athymic nude rats (n=24) aged six weeks (Hsd:RH-Foxnl mu, Harlan laboratories) were anaesthetized subcutaneously (mixture of Hypnorm and Midazolam) and placed in a small animal stereotaxic instrument (Model 900, David Kopf Instruments). Through a midline scalp incision, the bregma was exposed, and one mm anteriorly and two mm laterally to this a burr hole was made. A blunt cannula (Hamilton 7102 syringe) was then advanced to a depth of 3.5 mm (right striatum), and a 2 μl cell suspension of 300,000 T87 single cells in Hank's Balanced Salt Solution (Gibco) supplemented with 0.9% glucose (SAD 500 mg/ml) was slowly injected. After removal of the cannula, the skin was closed with VICRYL 5.0 (Ethicon) disrupted sutures. Two weeks after tumor-cell inoculation, a SMP-200 iPRECIO® Micro Infusion Pump (Data Sciences International) was implanted subcutaneously, since preliminary experiments had shown establishment of tumors at this time point. Infusion protocols (instant mode, constant flow mode and 5 μl/hour infusion rate) were downloaded, and the pumps were conditioned according to Low Flow Infusion Standard Operational Procedure. Rats were anaesthetized and fixated as described above. The midline incision was re-incised and the burr hole was identified. A 4 mm pump connector cannula (PlasticsOne model 328OPM/PK/Spc) was then connected to the pump catheter and implanted (according to the manufactures Technical Note 6) with the tip of the cannula in the center of the bulk tumor. Pumps were loaded with isotone saline (n=8, group I) or 0.1 mM MTX (Sigma-Aldrich) (n=16, group II and III). Finally, the skin was closed with VICRYL 5.0 disrupted sutures. As one of the rats with an MTX loaded pump never woke up after surgery it was censored from the study. Two days later the 23 rats were anaesthetized using isoflurane, and residual saline or MTX was extracted from the pump reservoirs according to the manufacturer's instructions. The reservoirs were refilled with 960 μl of 0.3 μg/m ^127I-UdR (n=8, group I) or twice with the ^125I-UdR activity (n=15, group II and III), enabling 8 days of continuous infusion and a cumulated infused ^125I-UdR activity of 83±7 MBq.
Rats were fed ad libitum and to block the thyroid gland, KI (Sigma-Aldrich) was added to the drinking water (1 mg/ml) from the day of pump implantation and the following 14 days. At the end of the observation period (180 days after completion of treatment) or once animals reached the pre-determined humane endpoints (neurological deficits or >20% weight-loss) they were anaesthetized by isoflurane and euthanized by intravenous pentobarbital injection.
For tumor response evaluation, the animals were PET scanned biweekly in the initial phase and later every third week using the Inveon PET scanner. […] After the tracer injection pairs of animals were placed head-to-head in the scanner and at 40 min. post injection a 14 min. static scan was performed. The acquired data were reconstructed using the ordered subset expectation maximization in two dimensions algorithm without scatter and attenuation correction in the Inveon Acquisition Workplace software module (Siemens).
Brain, thyroid gland, liver and kidneys were removed post-mortem and fixed in 4% formaldehyde. After fixation, brains were divided in one mm thick coronal sections using a rat brain matrix (PlaticsOne) followed by paraffin embedment. […] Three μm sections were cut and all sections were stained with HE for morphological evaluation.

[2] = test system: T87 glioblastoma cells; assay: CellTiter Blue viability assay, T87 cells; type: cell-based, human
Description: (§1) Cells were cultured as free-floating spheroids in the absence of serum at 36° C. in a humidified incubator with 5% CO2. Two GSCs passage 9-12, designated […], were utilized. They were established, as previously described in our laboratory in 2009 ([…]) and 2010 ([…]), in accordance with the Regional Scientific Ethical Committee (approval number S-VF-20040102). They have; the ability to form new spheroids at clonal density, a karyotype typical of GBMs, the ability to differentiate into cells expressing neuronal, astrocytic and oligodendrocyte markers upon culturering in serum-containing medium and the ability to form highly invasive tumors upon orthotopic xenografting (exemplified for the […] GCS in Supplementary FIG. 1). […] The cells were then incubated in serum-free medium or serum-free medium containing either the non-radioactive, but chemically identical ^[…]-UdR (0.3 μg/ml, Sigma-Aldrich), or increasing activities of ^125I-UdR (0-3 kBq/ml). At day 7, 20 μl of CellTiter Blue (Promega) was added and the cells were returned to the incubator for 6 hours prior to recording of the fluorescence in a Victor3 Multilabel Plate Reader (PerkinElmer Life Sciences).

[3] = test system: T87 GBM cells; assay: 125I-UdR incorporation after MTX/F-UdR exposure, T87 (gammacounter); type: cell-based, human; details: for 125I-UdR incorporation compared to non-treated control cells: 1 hour pre-treatment with 1 μM, 16 h later 100 Bq/mL 125I-UdR for 72 h
Description: A) 1 hour pre-treatment of T87 GBM cells in vitro with 1 μM MTX or F-UdR before ^125I-UdR exposure increased the ^125I incorporation in the cells. […] The incorporation rate was determined by a gammacounter. […] F-UdR was effective in concentrations ≥1 nM while MTX was effective at ≥10 nM. At a F-UdR concentration of 10 μM, the 125I-incorporation declined presumably do to toxic effects from the F-UdR. […] Opposed to the T87 cell line, the T86 cell line is also known to have an unmethylated MGMT promoter region, thereby being less responsive to TMZ chemotherapy.

[4] = Adverse effect evaluation (blood samples, post-mortem histology); type: in vivo, athymic nude rats
[5] = test system: C6 glioma; details: local implant, 7.4 MBq 125I-UdR, passive diffusion; cited from earlier work
[6] = test system: T87 spheroids; assay: 2D spheroid migration assay, T87; type: cell-based, human; details: for spheroid migration: 3 kBq/ml 125I-UdR or 0.3 μg/ml 127I-UdR, day 0-5, effect from day three
Description: (§2) Geltrex (Gibco) and serum-free medium was mixed (1+49) and 1.4 ml was added to each well in 12-well plates. Coated plates were incubated over night at 36° C. and the following morning the supernatant was aspirated. Then, one spheroid (100-200 μm) was aspirated into a 0.1-2.0 μl pipette and meticulously embedded in the coating. After incubating the plate for 75 minutes at 36° C., 800 μl serum-free medium was added. When spheroids started migrating (designated day 0) additionally 200 μl of serum-free medium (serving as untreated controls), ^127I-UdR or ^125I-UdR was added resulting in a final concentration of 0.3 μg/ml or 3 kBq/ml of ^127I-UdR or ^125I-UdR, respectively. Images were obtained daily from day 0 to day 5 using a Leica DM IRB inverted phase-contrast microscope, a Leica DFC300FX camera, and the Leica Application Suite version 2.6.0 RI computer software. The radius of the spheroids was determined (http://imagej.nih.gov/ij/) and the migration speed/day was calculated.

[7] = test system: TE-671 human rhabdomyosarcoma cells; details: IT bolus of 125I-UdR, IT infusion of MTX; cited from earlier work
[8] = Intracerebral distribution by SPECT/CT; type: in vivo, athymic nude rats; details: constant intratumoral CED for 8 days, last day of infusion
Description: The intracranial distribution of infused ^125I-UdR was measured at the last day of infusion using a Siemens Inveon Small Animal PET/SPECT/CT scanner. The animals were anesthetized using isoflurane and subsequently SPECT scanned for approximately 42 min using 1.8 mm pinhole collimators (3×1.8 RWB collimators) with 30 projections in 180 degrees rotation. […] In one of the animals a low-dose CT scan was performed in combination with the SPECT scan to visualize the surrounding cranium.

[9] = test system: T78 spheroids; assay: 2D spheroid migration assay, T78; type: cell-based, human; details: 3 kBq/ml 125I-UdR, from day three, vs 127I-UdR treated spheroids
Description: as §2

[10] = test system: T78 glioblastoma (GBM) cells; assay: CellTiter Blue viability assay, T78 cells; type: cell-based, human
Description: as §1

[11] = co-incubation with 18.5 KBq/mL 125I-UdR for 4 hours

Cn1nnc2c(C(N)=O)ncn2c1=O [TMZ, temozolomide]
maximum survival extrapolated for TMZ monotherapy ([1]; extrapolating the U87MG data to the present findings): 66 days
median survival ([1]; orthotopic GBM rat model, KM-survival plot FIG. 14): 47 days

O=c1[nH]c(=O)n([C@H]2C[C@H](O)[C@@H](CO)O2)cc1F [F-UdR, 5-Fluoro-2′-deoxyuridine]
killing effect compared with MTX ([2]; T87, 7 days exposure): stronger killing effect
125I-UdR incorporation compared to non-treated control cells [3]: significantly increase
concentration effective in increasing 125I incorporation [3, 11]: ≥ 1 nM
125I-incorporation at 10 μM ([3]; co-incubation with 18.5 KBq/mL 125I-UdR for 4 hours, presumably toxic effects): declined

O=c1[nH]c(=O)n([C@H]2C[C@H](O)[C@@H](CO)O2)cc1I [^127I-UdR, 5-iodo-2′-deoxyuridine]
animals developing a PET-detectable tumor / tumor progression by [11C]MeAIB PET ([1]; 180 days observation period): rapidly progressed
animals surviving the entire observation period ([1]; 180 days, surviving/total animals): 0/8
time from therapy initiation to the first PET-based tumor detection ([1]; [11C]MeAIB PET): 21 days
post-mortem histology of the brains ([1]; anti-human vimentin staining): very large tumors
longest survival after initiation of treatment ([1]; death due to massive tumor burden): ≤ 23 days
animals with dark neurons in the hippocampus (CA3 region) ([4]; HE stained brain sections): 4/8
animals with dark neurons in the neocortex ([4]; HE stained brain sections): 7/8
thyroid gland histology ([4]; HE stained sections): normofollicular architecture
liver histology (hepatocyte necrosis, haemorrhage, inflammation) ([4]; PAS-diastase staining): no signs of hepatocyte necrosis, haemorrhage or inflammation
animals surviving the entire observation period of 180 days [5]: No ^127I-UdR treated animal survived the entire observation period
median survival [5]: 20 days
spheroid migration [6]: unaffected

CN(Cc1cnc2nc(N)nc(N)c2n1)c1ccc(C(=O)N[C@@H](CCC(=O)O)C(=O)O)cc1 [MTX, methotrexate]
median time to onset of paralysis [7]: no significant effect
125I-UdR incorporation compared to non-treated control cells [3]: significantly increase
concentration effective in increasing 125I incorporation [3, 11]: ≥ 10 nM

O=c1[nH]c(=O)n([C@H]2C[C@H](O)[C@@H](CO)O2)cc1[125I] [^125I-UdR, 5-[^125I]iodo-2′-deoxyuridine]
125I in the tumor region by SPECT/CT [8]: high concentration
IC50 (cell viability) ([2]; T87, 7 days exposure, non-linear regression, range printed 99-120 Bq/mL): 109 Bq/mL
cell survival compared to untreated controls ([2]; T87, day 7, most activity concentrations (0-3 kBq/ml), p<0.0001): significantly decreased
activity concentrations with highly significant effect compared to 127I-UdR ([2]; T87, p<0.0001): ≥ 100 Bq/ml
animals surviving the entire observation period of 180 days [5]: 20%
median survival [5]: 35 days
spheroid migration [9]: significantly reduced
spheroid migration [6]: significantly reduced; also recorded: clearly inhibited
spheroid expansion in size ([6]; vs untreated or 127I-UdR exposed spheroids): not able to expand in size
cell survival compared to untreated controls ([10]; T78, day 7, most activity concentrations (0-3 kBq/ml), p<0.0001): significantly decreased
activity concentrations with highly significant effect compared to 127I-UdR ([10]; T78, p<0.0001): ≥ 100 Bq/ml
